Where only a bound is given, the exact number is not on record here.

This series has as its system isolated mouse liver mitochondria. Description: Loss of mitochondrial transmembrane potential. The class given is biochemical. Particulars: 20% of maximal loss of ΔΨm (50µM mClCCP = 100%), 30-min incubation.
Regarding `CCCCc1oc2ccccc2c1C(=O)c1cc(I)c(OCCN(CC)CC)c(I)c1` [Amiodarone], the “ΔΨm loss EC20” value is reported as 2.6 µM.
As for `CC1(C)S[C@@H]2[C@H](NC(=O)[C@H](N)c3ccc(O)cc3)C(=O)N2[C@H]1C(=O)O` [Amoxicillin], the figure is > 400 µM.
As to `CC1(C)S[C@@H]2[C@H](NC(=O)[C@H](N)c3ccccc3)C(=O)N2[C@H]1C(=O)O` [Ampicillin], the “ΔΨm loss EC20” value is listed as > 400 µM.
Turning to `CC(C)c1c(C(=O)Nc2ccccc2)c(-c2ccccc2)c(-c2ccc(F)cc2)n1CC[C@@H](O)C[C@@H](O)CC(=O)O` [Atorvastatin], the “ΔΨm loss EC20” value was determined as 4.3 µM.
As for `CS(=O)(=O)OCCCCOS(C)(=O)=O` [Busulfan], the figure is 483.1 µM.
On to `O=C(/C=C/c1ccc(O)c(O)c1)c1ccc(O)cc1O` [Butein], for which the “ΔΨm loss EC20” value was > 200 µM.
With `O=C(O)c1cn(C2CC2)c2cc(N3CCNCC3)c(F)cc2c1=O` [Ciprofloxacin], the “ΔΨm loss EC20” value is > 400 µM.
With `Clc1ccccc1C(c1ccccc1)(c1ccccc1)n1ccnc1` [Clotrimazole] the figure was 23.9 µM; with `O=c1ccc2ccccc2o1` [Coumarin], 0.9 µM; with `Cc1nc(Nc2ncc(C(=O)Nc3c(C)cccc3Cl)s2)cc(N2CCN(CCO)CC2)n1` [Dasatinib], 20.8 µM.
As to `CC1=NS(=O)(=O)c2cc(Cl)ccc2N1` [Diazoxide], the “ΔΨm loss EC20” value was > 200 µM.
Turning to `O=C(O)c1cc(-c2ccc(F)cc2F)ccc1O` [Diflunisal], the “ΔΨm loss EC20” value was determined as 17.9 µM.
As for `CCN(CC)C(=S)SSC(=S)N(CC)CC` [Disulfiram], the figure is 12.6 µM; as for `COc1cccc2c1C(=O)c1c(O)c3c(c(O)c1C2=O)C[C@@](O)(C(=O)CO)C[C@@H]3O[C@H]1C[C@H](N)[C@H](O)[C@H](C)O1` [Doxorubicin], 8.9 µM.
Consider `Clc1ccc(COC(Cn2ccnc2)c2ccc(Cl)cc2Cl)cc1` (stereo not drawn) [Econazole], for which the “ΔΨm loss EC20” value is 13.3 µM.
With `O=C(O)c1ccccc1Nc1cccc(C(F)(F)F)c1` [Flufenamic acid] the figure was 42.5 µM.
Turning to `CC(C)C(=O)Nc1ccc([N+](=O)[O-])c(C(F)(F)F)c1` [Flutamide], the “ΔΨm loss EC20” value turned out to be 27.0 µM.
As for `COc1cc2ncnc(Nc3ccc(F)c(Cl)c3)c2cc1OCCCN1CCOCC1` [Gefitinib], the “ΔΨm loss EC20” value was 9.6 µM.
With `O=c1c(-c2ccc(O)cc2)coc2cc(O)cc(O)c12` [Genistein] the figure was 150.6 µM; with `CNC(C)C1CCC(N)C(OC2C(N)CC(N)C(OC3OCC(C)(O)C(NC)C3O)C2O)O1` (stereo not drawn) [Gentamicin], 49.0 µM.
Consider `CCC1=C(C)CN(C(=O)NCCc2ccc(S(=O)(=O)NC(=O)N[C@H]3CC[C@H](C)CC3)cc2)C1=O` [Glimepiride], for which the “ΔΨm loss EC20” value stood at 94.6 µM.
With `Cc1cc2c(C(C)C)c(O)c(O)c(C=O)c2c(O)c1-c1c(C)cc2c(C(C)C)c(O)c(O)c(C=O)c2c1O` [Gossypol] the figure was 1.0 µM; with `CC(C)=CCC[C@]1(C)[C@@H](CC=C(C)C)C[C@@]2(CC=C(C)C)C(=O)[C@]1(C(=O)C(C)C)C(=O)C(CC=C(C)C)=C2O` [Hyperforin], 0.1 µM.
On to `Cc1ccc(NC(=O)c2ccc(CN3CCN(C)CC3)cc2)cc1Nc1nccc(-c2cccnc2)n1` [Imatinib], for which the “ΔΨm loss EC20” value is listed as 25.7 µM.
With `CN(C)CCCN1c2ccccc2CCc2ccccc21` [Imipramine] the figure was 74.8 µM; with `COc1ccc2c(c1)c(CC(=O)O)c(C)n2C(=O)c1ccc(Cl)cc1` [Indomethacin], 443.2 µM; with `NNC(=O)c1ccncc1` [Isoniazide], 504.6 µM.
With `O=C(O)c1nn(Cc2ccc(Cl)cc2Cl)c2ccccc12` [Lonidamine] the figure was 138.1 µM.
On to `Cc1cccc(Nc2ccccc2C(=O)O)c1C` [Mefenamic acid], for which the “ΔΨm loss EC20” value was 49.7 µM.
With `Sc1ncnc2nc[nH]c12` [Mercaptopurine] the figure was 406.9 µM.

(Values after paper PMC3446843 (Toxicological Sciences, 2012).)
